Earlier results on one compound are cited in paper PMC9814429, “First-in-human phase I dose-escalation and dose-expansion trial of the selective MEK inhibitor HL-085 in patients with advanced melanoma harboring NRAS mutations” (BMC Medicine, 2023).

The series relates to NRAS mutant melanoma. Details: method as in PMID 28284557. Particulars: phase 3, NRAS mutant melanoma.

With `Cn1cnc2c(F)c(Nc3ccc(Br)cc3F)c(C(=O)NOCCO)cc21` [binimetinib], the DCR is 58%, the ORR is on record as 15% and the PFS is 2.8 months.
